For orientation: IC50 means the concentration at which inhibition is half-maximal. Usually ED50 stands for the midpoint of the dose-response relation.

The structures appear in SMILES notation. Counter-ions that a name gives are not always drawn. Like-named read-outs stand apart in the source and are kept apart here.

Assay [1] has as its target class A β-lactamase TEM-1 (Escherichia coli, UniProt P62593). In words: IC50 determination, β-lactamase inhibition (nitrocefin, spectrophotometric). Format: biochemical, E. coli. The following applies: enzyme 4.3 nM; 10 minutes preincubation at 25° C.; nitrocefin 50 μg/ml; pH 7.0. The method, then: (§1) IC50 Determination for the Penem Inhibitor
(§2) β-Lactamase inhibitory activity of the penem inhibitors was determined spectrophotometrically as described by Bush et al., [Bush, K., Macalintal, C., Rasmussen, B. A., Lee, V. and Yang, Y. Antimicrobial Agents and Chemotherapy 1993, 37, 851]. Homogeneously purified class A β-lactamases TEM-1 from E. coli and Imi-1 from Enterobacter cloacae, class B enzyme CcrA from Bacteroides fragilis and class C enzyme AmpC from Enterobacter cloaca were employed in the assay. The enzyme concentrations for TEM-1, Imi-1, CcrA and AmpC were 4.3, 7.1, 1.2 and 2.1 nM, respectively. A wide range of inhibitor concentrations were prepared in 50 mM PO4, pH 7.0 to include the possible IC50 values. The substrate used to initiate the enzyme reaction was nitrocefin at 50 μg/ml in the same buffer as the inhibitor. Initially the enzyme and inhibitor (20 μl each) were preincubated for 10 minutes at 25° C. prior to the addition of 160 μl volume of nitrocefin. Initial rates of hydrolysis were monitored for 5 minutes at 495 nm using a Molecular Devices Spectra Max 250 with kinetic protocol of SoftMax Program. Readings from the Spectra Max 250 were exported and transferred to Microsoft Excel. The percent of inhibition of each inhibitor concentration was calculated based on the control enzyme activity. The inhibitor concentration that caused a 50% reduction in the enzymatic activity (IC50) was determined graphically.

Assay [2] has as its system Clinical isolates that have been adapted to cause infection in mice. In words: In vivo antibacterial protection, 7 day survival of infected mice. More on the design: species or system mice strain CD-1. An excerpt:
In Vivo Antibacterial Protection
Female mice strain CD-1, approximately 18-22 grams, were received from Charles River Laboratories and quarantined 7 days prior to use. In addition, mice may be rendered neutropenic using cytoxan.
Clinical isolates that have been adapted to cause infection in mice, are used in the experiment, including infections with strains of E. coli, K. pneumoniae, M. morganii, E. cloacae, S. marcescens, C. freundii, staphylococci, streptococci, P. aeruginosa and N. gonorrhoeae.
Mice are challenged by injecting 0.5 ml intraperitoneally or 0.05 ml intranasally of a predetermined bacterial inoculum suspended in broth, saline or hog gastric mucin (supplemented with dried bovine hemoglobin for N. gonorrhoeae). […] Antibacterial doses (dose concentration prepared by two fold serial dilutions of the antibiotic) are dissolved or suspended in 0.2% aqueous agar or methocel, phosphate buffered saline or an adjuvant are administered orally, subcutaneously or intravenously in the following manner: • a) Orally or subcutaneously: Dose volume of 0.5 ml administered ½ hr after infection. A second dose may be administered 3 hr. after infection for treatment of infections with more virulent organisms. • b) Intravenously: Dose volume of 0.2 ml, administered ½ hr. after infection. For the treatment of infections with more virulent organisms, more doses, up to 48 hr may be administered. (Intravenous dosing will not exceed 3 doses/24 hr period.) • c) Oral pretreatment: Under special circumstances, the pH of the stomach needs to be adjusted in order to increase the gastric stability of the antibiotic. For this purpose, 0.5 ml of phosphate buffered saline (pH7.8, 0.06M) (or specific approved adjuvant) is administered orally ½ hr after infection, followed 5 minutes later by 0.5 ml of antibiotic (also orally) contained in phosphate buffered saline (pH7.8, 0.06M). Animal Species
A detailed explanation as to the number of animals needed for the determination of in vivo efficacy follows: • A) Novel antibiotics are tested at 5 different dose levels with 5 mice per dose level at each of three routes of administration (oral, subcutaneous and intravenous). […] This would require 25 mice/route with 3 routes/antibiotic or 75 mice per novel compound tested. One to two novel antibiotics will be tested per experiment (75-150 mice) • B) The effectiveness of the new compound must be compared to that of a standard, or antibiotic of known effectiveness. Known or previously tested antibiotics are tested at 5 dose levels with 5 mice per dose level by a single route of administration, for a total of 25 mice/antibiotic. Usually 3-6 antibiotics will be tested per experiment. (75-150 mice). • C) Untreated controls—In each of the above tests, untreated animals are infected with 3 different concentrations of bacterial inoculum with 10 mice per concentration (30 mice total in each and every test). These untreated controls are used to determine and maintain the infection level between 10-100 LD50s as required for test to test comparison and validity. Determination of Protective Effects of Antibacterial Agents:
The protective effects of the antibacterial agent(s) are measured by the survival of the infected untreated as compared to the treated animals. […] A census of survivors is taken twice daily and at that time dead as well as moribund animals are removed. […] The test is performed three times on separate days to provide a statistically valid number of animals and to minimize variation in test results on a day to day and test to test basis.

Assay [3] deals with class C enzyme AmpC (Enterobacter cloacae, UniProt P05364). In words: biochemical. Set-up: species or system Enterobacter cloaca. Here is the method:
as §1, §2

Assay [4] concerns the target class B enzyme CcrA (Bacteroides fragilis, UniProt P25910). In words: IC50 determination, β-lactamase inhibition (nitrocefin, spectrophotometric). Type of assay: biochemical. The method, then:
as §1, §2

The target of assay [5] is class A β-lactamase Imi-1 (Enterobacter cloacae, UniProt Q46991). The description is as above. Format: biochemical. Here is the method:
as §1, §2

Where [6] appears, read: Mus musculus, 168 h, Ratio of Piperacillin vs. Inhibitor not given, read-out: ED50.
The mark [7] stands for this setting: enzyme 2.1 nM, 10 minutes preincubation at 25° C., nitrocefin 50 μg/ml, pH 7.0, read-out: IC50 (nM) Class C AmpC.
The mark [8] stands for this setting: enzyme 1.2 nM, 10 minutes preincubation at 25° C., nitrocefin 50 μg/ml, pH 7.0, read-out: IC50 (nM) Class B Ccr.
[9] abbreviates: enzyme 7.1 nM, 10 minutes preincubation at 25° C., nitrocefin 50 μg/ml, pH 7.0, read-out: IC50 (nM) Class A Imi.
[10] abbreviates: Mus musculus, 168 h, Ratio of Piperacillin vs. Inhibitor 4:1, read-out: ED50.

class B enzyme CcrA, sequence (P25910 19-249): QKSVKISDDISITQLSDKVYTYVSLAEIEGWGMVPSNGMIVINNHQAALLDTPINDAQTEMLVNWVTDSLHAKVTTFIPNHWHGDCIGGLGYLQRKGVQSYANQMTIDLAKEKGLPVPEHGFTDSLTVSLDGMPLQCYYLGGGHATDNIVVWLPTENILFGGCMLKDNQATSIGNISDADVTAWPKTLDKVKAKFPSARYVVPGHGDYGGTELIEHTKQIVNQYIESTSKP
class A β-lactamase Imi-1, sequence (Q46991 28-292): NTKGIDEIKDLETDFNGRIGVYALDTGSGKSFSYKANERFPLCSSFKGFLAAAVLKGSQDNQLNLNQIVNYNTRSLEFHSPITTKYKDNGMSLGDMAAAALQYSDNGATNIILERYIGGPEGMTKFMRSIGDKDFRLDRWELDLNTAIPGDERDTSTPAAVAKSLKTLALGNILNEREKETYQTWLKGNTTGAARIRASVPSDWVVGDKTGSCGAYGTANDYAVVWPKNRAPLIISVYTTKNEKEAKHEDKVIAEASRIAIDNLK
class C enzyme AmpC, sequence (P05364 21-381): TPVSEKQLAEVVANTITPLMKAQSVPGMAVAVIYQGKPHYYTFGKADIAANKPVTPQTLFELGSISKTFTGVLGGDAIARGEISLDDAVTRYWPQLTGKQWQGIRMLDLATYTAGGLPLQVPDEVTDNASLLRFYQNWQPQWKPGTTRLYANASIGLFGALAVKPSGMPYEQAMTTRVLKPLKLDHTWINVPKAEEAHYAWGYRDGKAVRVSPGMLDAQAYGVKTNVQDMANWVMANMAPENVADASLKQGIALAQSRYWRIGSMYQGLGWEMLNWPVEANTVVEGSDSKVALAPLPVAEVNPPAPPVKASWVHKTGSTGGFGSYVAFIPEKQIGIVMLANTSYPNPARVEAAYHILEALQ
class A β-lactamase TEM-1, sequence (P62593 24-286 limits assumed): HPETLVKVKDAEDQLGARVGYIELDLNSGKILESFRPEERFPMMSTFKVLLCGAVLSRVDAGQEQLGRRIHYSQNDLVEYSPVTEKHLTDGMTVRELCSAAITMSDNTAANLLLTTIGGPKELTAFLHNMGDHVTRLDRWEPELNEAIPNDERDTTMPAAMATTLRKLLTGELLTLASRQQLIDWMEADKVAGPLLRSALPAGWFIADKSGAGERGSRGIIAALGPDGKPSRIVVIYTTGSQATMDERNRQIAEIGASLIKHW

For `O=C(O)C1=CS[C@@H]2/C(=C\c3cc4n(n3)CCOC4)C(=O)N12` [Example 35, (5R,6Z)-6-(6,7-dihydro-4H-pyrazolo[5,1-c][1,4]oxazin-2-ylmethylene)-7-oxo-4-thia-1-azabicyclo[3.2.0]hept-2-ene-2-carboxylic acid], the IC50 in assay [1] is 4.2 nM; in assay [3] (setting [7]), 6.1 nM; in assay [4] (setting [8]) it was 30 nM; in assay [5] it was 230 nM. The ED50 in assay [2] (setting [6]) was 19 mg/kg.
In the case of `CC1(C)Cc2cc(/C=C3/C(=O)N4C(C(=O)[O-])=CS[C@H]34)nn2C1.[Na+]` [Example 26, (5R)(6Z)-6-(5,5-Dimethyl-4H-1,6a-diazapentalen-2-ylmethylene)-7-oxo-4-thia-1-azabicyclo[3.2.0]hept-2-ene-2-carboxylic acid, sodium salt], the IC50 in assay [1] came to 0.73 nM; in assay [3], 2.3 nM; in assay [4] (setting [8]) it was 89 nM; in assay [5] (setting [9]) it was 54 nM. Further, the ED50 in assay [2] (setting [6]) is 30 mg/kg.
Regarding `O=C(O)C1=CS[C@@H]2/C(=C\c3cc4n(n3)CCNC4)C(=O)N12` [Example 25, (5R),(6Z)-7-Oxo-6-(4,5,6,7-tetrahydropyrazolo[1,5-a]pyrazin-2-ylmethylene)-4-thia-1-aza-bicyclo[3.2.0]hept-2-ene-2-carboxylic acid, sodium salt], the IC50 in assay [1] is 1.1 nM; in assay [3] (setting [7]) it was 2.7 nM; in assay [4] (setting [8]), 162 nM; in assay [5] (setting [9]), 123 nM. Besides, the ED50 in assay [2] (setting [6]) was found to be 30 mg/kg.
As to `CN1CCc2sc(C=C3C(=O)N4C(C(=O)O)=CSC34)cc2C1` (stereo not drawn) [Example 17, 6-(5-Methyl-4,5,6,7-tetrahydro-thieno[3,2-c]pyridin-2-ylmethylene)-7-oxo-4-thia-1-aza-bicyclo[3.2.0]hept-2-ene-2-carboxylic acid], the IC50 stood at 12 nM in assay [1], 26 nM in assay [3] (setting [7]), 28 nM in assay [4] (setting [8]) and 24 nM in assay [5] (setting [9]). The ED50 in assay [2] (setting [10]) was found to be 37.9 mg/kg.
`O=C([O-])C1=CS[C@@H]2/C(=C\c3cc4n(n3)CSC4)C(=O)N12.[Na+]` [Example 31, (5R)(6Z)-7-Oxo-6-(4H-5-thia-1,6a-diazapentalen-2-ylmethylene)-4-thia-1-azabicyclo[3.2.0]hept-2-ene-2-carboxylic acid, sodium salt]: the IC50 was 1.4 nM in assay [1]; 1.5 nM in assay [3] (read-out: IC50 (nM) Class C AmpC, pH 7); 110 nM in assay [4] (setting [8]); 56 nM in assay [5] (setting [9]). Moreover, the ED50 in assay [2] (Ratio of Piperacillin vs. Inhibitor not given) is listed as 20 mg/kg.
With `O=C(O)C1=CS[C@@H]2/C(=C\c3cc4c(o3)CCC4)C(=O)N12` [Example 27, (5R),(6Z)-6-(5,6-Dihydro-4H-cyclopenta[b]furan-2-ylmethylene)-7-oxo-4-thia-1-azabicyclo[3.2.0]hept-2-ene-2-carboxylic acid, sodium salt], the IC50 was 2 nM in assay [1], 2 nM in assay [3] (setting [7]), 73 nM in assay [4] (setting [8]) and 5.5 nM in assay [5] (setting [9]). Moreover, in assay [2] (setting [6]), the ED50 was determined as 28 mg/kg.
`O=C([O-])C1=CS[C@@H]2/C(=C\c3cn4c(n3)CSC4)C(=O)N12.[Na+]` [Example 13, (5R)(6Z)-6-(7H-Imidazo[1,2-c]thiazol-2-ylmethylene)-7-oxo-4-thia-1-azabicyclo[3.2.0]hept-2-ene-2-carboxylic acid, sodium salt]: the IC50 in assay [1] is 2.9 nM; in assay [3] it was 3.1 nM; in assay [4] (setting [8]), 160 nM; in assay [5] (setting [9]), 16 nM. The ED50 in assay [2] (setting [6]) amounted to 18 mg/kg.
Turning to `O=C(O)C1=CS[C@@H]2/C(=C\c3cn4c(n3)COCC4)C(=O)N12` [Example 7, (5R),(6Z)-6-(5,6-Dihydro-8H-imidazo[2,1-c][1,4]oxazin-2-ylmethylene)-7-oxo-4-thia-1-azabicyclo[3.2.0]hept-2-ene-2-carboxylic acid, sodium salt], the IC50 in assay [1] came to 0.4 nM; in assay [3] (setting [7]), 4.8 nM; in assay [4] (setting [8]) it was 66 nM; in assay [5], 7.8 nM. Also, in assay [2] (setting [10]), the ED50 came out at 22.8 mg/kg.
Consider `O=C([O-])C1=CS[C@@H]2/C(=C\c3cc4n(n3)CCSC4)C(=O)N12.[Na+]` [Example 11, (5R)(6Z)-6-(6,7-Dihydro-4H-pyrazolo[5,1-c][1,4]thiazin-2-ylmethylene)-7-oxo-4-thia-1-azabicyclo[3.2.0]hept-2-ene-2-carboxylic acid, sodium salt], for which the IC50 turned out to be 1 nM in assay [1], 1.2 nM in assay [3], 61 nM in assay [4] (setting [8]) and 18 nM in assay [5] (setting [9]). Besides, the ED50 in assay [2] (setting [10]) turned out to be 13.9 mg/kg.
Turning to `CN1CCn2cc(/C=C3/C(=O)N4C(C(=O)O)=CS[C@H]34)nc2C1` [Example 2, (5R),(6Z)-6-(7-Methyl-5,6,7,8-tetrahydroimidazo[1,2-a]pyrazin-2-ylmethylene)-7-oxo-4-thia-1-aza-bicyclo[3.2.0]hept-2-ene-2-carboxylic acid, sodium salt], the half-inhibitory concentration (IC50) in assay [1] came to 4.4 nM; in assay [3] (setting [7]) it was 5.8 nM; in assay [4] (setting [8]) it was 120 nM; in assay [5] (setting [9]) it was 22 nM. In assay [2] (Mus musculus, 168 h, Ratio of Piperacillin vs. Inhibitor 2:1, read-out: ED50), the ED50 was above 64 mg/kg.
Take `O=C(O)C1=CS[C@@H]2/C(=C\c3cn4c(n3)CNCC4)C(=O)N12` [Example 3, (5R),(6Z)-7-Oxo-6-(5,6,7,8-tetrahydroimidazo[1,2-a]pyrazin-2-ylmethylene)-4-thia-1-azabicyclo[3.2.0]hept-2-ene-2-carboxylic acid, sodium salt]: the IC50 in assay [1] stood at 5.4 nM; in assay [3] (setting [7]), 6.2 nM; in assay [4], 320 nM; in assay [5] it was 28 nM. In assay [2] (setting [10]), the ED50 was 16 to 32 mg/kg.
Consider `O=C([O-])C1=CS[C@@H]2/C(=C\c3cc4n(n3)CCCC4)C(=O)N12.[Na+]` [Example 9, (5R)(6Z)-7-Oxo-6-(4,5,6,7-tetrahydropyrazolo[1,5-a]pyridin-2-ylmethylene)-4-thia-1-azabicyclo[3.2.0]hept-2-ene-2-carboxylic acid, sodium salt], for which the IC50 was 2.2 nM in assay [1], 3.2 nM in assay [3], 62 nM in assay [4] (setting [8]) and 90 nM in assay [5]. Besides, the ED50 in assay [2] (setting [10]) was determined as 31.3 mg/kg.

Values taken from patent US7812014B2, “Bicyclic 6-alkylidene-penems as β-lactamase inhibitors” (priority 2002, dated 2010).
